From patent publication US20060040894A1, “Compositions and methods using hyaluronic acid” (Angiotech International AG, priority 2004, published 2006) come the findings set out here.

The test system of the experiment is hyaluronidase. Briefly: Hyaluronic Acid Viscometry Assay (degradation of HA by hyaluronidase). The experiment is classed as biochemical. The source says: The time for the sample to run through the viscometer was proportional to the viscosity of HA in the sample, which, in turn, was proportional to the molecular weight of the HA. As the enzyme (hyaluronidase) breaks down HA, the molecular weight of the polymer is reduced, the viscosity of the solution drops, and the solution runs through the viscometer more rapidly. Accordingly, shorter run times indicated lower molecular weights of HA (i.e., more breakdown of the HA by hyaluronidase), whereas longer times indicated higher molecular weights of HA (i.e., less breakdown of the HA by hyaluronidase).
0.07% HA solutions were prepared as follows: […] and […] pH 5.5 phosphate buffer (1 M) were combined in a scintillation vial. […] The solutions were allowed to dissolve overnight at 37° C. The pH's were checked and adjusted to 6.0. The viscosity of the solutions was analyzed by measuring the run time through an Ubbelohde PC1 viscometer. 50 μl of hyaluronidase (4.2 mg in 620 ul of water) was added per vial (final concentration approximately 6 units/ml) and incubated overnight with shaking. A viscometer reading was recorded for each solution after overnight incubation.

Setting [1] is: 10 mg/ml, without enzyme (Example 4).

As to `CC(O)CO` (centres unmarked) [Propylene glycol], the “Time (minutes) for sample to run through viscometer” value runs as follows: (0 mg/ml (so in the source), with enzyme (Example 4)) 5 min; under setting [1], 5.85 min. The “Degradation of HA (% viscosity relative to control t = 0)” value (10 mg/ml, with hyaluronidase (Example 2)) came to 65%. The “Effect on hyaluronidase (viscosity of HA solution versus enzyme control)” value was “inhibit the action of hyaluronidase” (Example 2, concentrations of Table 2) and “inhibit the action of hyaluronidase” (Example 4, 10 mg/ml).
For SPAN 80, the “Time (minutes) for sample to run through viscometer” value reads like this: (10 mg/ml, with enzyme (Example 4)) 4.36 min; under setting [1], 5.5 min. Moreover, the “Effect on hyaluronidase (viscosity of HA solution versus enzyme control)” value (Example 4, 10 mg/ml) was “inhibit the action of hyaluronidase”.
